{"source": "patent US9687548B2", "about": "“Photoactivatable caged tamoxifen and tamoxifen derivative molecules and methods of use thereof” (Dana-Farber Cancer Institute, Inc., priority 2012, dated 2017)", "key": {"CreER [1]": {"target": "T1, CreER (Homo sapiens, UniProt P03372, G400V/L544A/M543A)", "T1 construct": "host or cells: cells and tissues (MEFs, mammary epithelial acini, skin, mammary gland) of heterozygous Rosa26CreER^T2 knock-in reporter mice; the other entry of the earlier key: cre (P06956, Recombinase cre)", "T1 sequence (P03372 with tags, fused parts or gaps G400V/M543A/L544A)": "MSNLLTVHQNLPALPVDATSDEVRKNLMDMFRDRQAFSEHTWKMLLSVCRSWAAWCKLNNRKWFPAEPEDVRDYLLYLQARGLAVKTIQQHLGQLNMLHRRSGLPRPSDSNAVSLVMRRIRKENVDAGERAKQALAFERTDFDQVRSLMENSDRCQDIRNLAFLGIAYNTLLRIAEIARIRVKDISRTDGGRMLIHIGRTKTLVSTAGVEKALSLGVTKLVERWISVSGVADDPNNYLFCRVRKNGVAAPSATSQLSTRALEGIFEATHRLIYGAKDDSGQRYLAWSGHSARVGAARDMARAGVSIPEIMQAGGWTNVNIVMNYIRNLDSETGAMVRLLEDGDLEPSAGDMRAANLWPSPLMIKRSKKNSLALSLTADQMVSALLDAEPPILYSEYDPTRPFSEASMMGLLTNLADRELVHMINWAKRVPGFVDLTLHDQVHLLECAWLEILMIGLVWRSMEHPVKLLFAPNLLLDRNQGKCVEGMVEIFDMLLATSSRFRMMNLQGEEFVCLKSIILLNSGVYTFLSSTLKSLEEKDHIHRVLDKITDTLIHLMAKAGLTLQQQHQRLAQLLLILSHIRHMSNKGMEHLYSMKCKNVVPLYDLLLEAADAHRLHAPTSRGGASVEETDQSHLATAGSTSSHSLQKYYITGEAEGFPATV", "assay": "Photoactivated EGFP expression in mammary acinus 3D culture from Rosa26CreERT2; mT/mG mice", "assay_type": "cell-based, mouse", "details": "5 μM, 1 min UV lamp or 60× objective DAPI filter", "description": "Mouse mammary epithelial cells […] were isolated from 6-8 week old female Rosa26CreER^T2; mT/mG mice as previously described (Tiede et al., PLoS One 4:e8035, 2009). Briefly, mammary glands were excised, minced using scalpels, and digested for 1 hour in 300 U/mL type 1A collagenase (Sigma) and 100 U/mL hyaluronidase (Sigma). The cells were then treated with 0.25% trypsin/EDTA, dispase (Invitrogen)/DNase (Sigma), and ACK lysing buffer (Invitrogen) in succession. Between each treatment, cells were rinsed in MEGM (1:1 DMEM:F12 Ham supplemented with […], 500 ng/mL hydrocortisone, 10 ng/mL EGF, 20 ng/mL cholera toxin, 5% bovine calf serum, and 1× penicillin/streptomycin). Afterwards, cells were filtered twice through […] nylon cell strainers and seeded in 35-mm dishes that contained a layer of Growth Factor Reduced Matrigel (BD Biosciences) measuring approximately 1-2 mm thickness. Acini usually formed in 4-8 days. During photoactivation, the acini were incubated with MEGM containing 5 μM caged 4-OHC for 1 hour. The cells were washed twice quickly with warm PBS and covered with fresh medium. The dish was placed on the UV emission surface of a hand-held 6 W long-wavelength UV lamp (UVP, LLC, exposure time: 1 minute) or above the 60× objective of an inverted epifluorescent microscope equipped with a standard DAPI filter set. […]"}, "[2]": {"assay": "UV-Vis and HPLC-MS characterization of the photocleavage of caged 4-OHC", "assay_type": "physicochemical", "description": "A 0.25 mM solution of caged 4-OHC in 1:1 (v/v) water:acetonitrile was used for the UV-Vis spectroscopic characterization of the photocleavage reaction. The solution of the caged 4-OHC was placed in a 96-well black clear bottom microplate. The solution was then irradiated at ˜365 nm using a hand-held UV lamp. After light exposure, UV-Vis spectra of the solution was recorded in a TECAN microplate reader. A time course of the photocleavage reaction was monitored by exposing the caged 4-OHC solution to light for different durations, and subsequently recording the UV-Vis spectra of the solution.\nA 2.0 mM solution of caged 4-OHC in 1:1 (v/v) water: acetonitrile was used for the HPLC-MS study. The solution of the caged 4-OHC was placed in a glass vial and irradiated at ˜365 nm using a hand-held UV lamp. Aliquots were taken at different time intervals and injected to the HPLC-MS machine for analysis. Prism 5 (GraphPad, La Jolla, Calif.) for Mac was used to plot the data."}, "[3]": {"assay": "Stability of caged molecule in the absence of light", "assay_type": "physicochemical", "details": "in the dark / prior to illumination"}, "CreER [4]": {"target": "T1, CreER", "assay": "Photoactivated EGFP expression in MEFs from Rosa26CreERT2; mT/mG mice", "assay_type": "cell-based, mouse", "details": "5 μM, 365 nm illumination vs no light", "description": "(§1) Mouse embryonic fibroblasts (MEFs) were isolated as described (Sharpless et al., Mol. Cell 8:1187-1196, 2001) and grown in DMEM with 10% FBS. To shed UV light on the cells, the cells were first grown in 60-mm dish overnight to become nearly confluent. The next day, the medium was replaced with medium containing caged 4-OHC at 5 μM and incubated for 30 minutes. The cells were washed twice quickly with warm PBS and covered with fresh medium. The dish was placed on the UV emission surface of a handheld 6 W long-wavelength UV lamp (UVP, LLC), and UV light was kept on for a designated period of time. The cells were put back into the incubator to culture for 48-72 h before live imaging or flow cytometric analysis.\nA recently developed double-fluorescent Cre reporter mouse, the mT/mG strain (Muzumdar, Genesis 45:593, 2007) was used to design a biological system that can faithfully report on the induced activity of CreER. This mouse model expresses tdTomato prior to and EGFP following Cre-mediated recombination ubiquitously in tissues. […] The photoinduced activity of caged tamoxifen and caged tamoxifen derivative molecules can be assessed by illuminating the cells and tissues from these mice and looking for EGFP-expressed cells (FIG. 1)."}, "CreER [5]": {"target": "T1, CreER", "assay": "In vivo photoactivation in mammary gland of female Rosa26CreERT2; mT/mG mice (ex vivo IV-110 imaging)", "parameters": "species or system mouse", "description": "(§2) Female mice of 6-8 weeks old were clean shaven on the dorsal and ventral sides. The caged 4-OHC was dissolved in 20% Solutol for in vivo delivery. The vehicle or 1 mg caged 4-OHC in vehicle was injected intraperitoneally. One hour later, the mice were anesthetized with isoflurane and exposed to UV light from the hand-held 6 W long-wavelength UV lamp (UVP, LLC) for 15 minutes. Alternatively, for mammary tissue illumination, the right inguinal (#4) mammary fat pad was exposed by creating a small skin flap and illumination with UV light for 15 minutes. For enhanced photoconversion, this procedure was repeated four times. On the seventh day, the mice were imaged with Olympus OV-110 epifluorescence imager (Thurber et al., PLoS One 4:e8053, 2009) to detect fluorescent signals emitted from the skin on the dorsal and ventral sides. Alternatively, the left and right mammary glands were dissected and immediately imaged using the intravital laser scanning microscope IV-110 (Kelly et al., PLoS Med. 5:e85, 2008)."}, "CreER [6]": {"target": "T1, CreER", "assay": "In vivo photoactivation in skin of Rosa26CreERT2; mT/mG mice (OV-110 imaging)", "parameters": "species or system mouse", "description": "as §2"}, "CreER fusion protein": {"target": "T2, CreER fusion protein (Homo sapiens, UniProt P03372, G400V/L544A/M543A)", "T2 construct": "host or cells: cells and tissues (MEFs, mammary epithelial acini, skin, mammary gland) of heterozygous Rosa26CreER^T2 knock-in reporter mice; the other entry of the earlier key: cre (P06956, Recombinase cre)", "T2 sequence (P03372 with tags, fused parts or gaps G400V/M543A/L544A)": "T1 sequence (P03372 with tags, fused parts or gaps G400V/M543A/L544A)", "assay": "X-gal (lacZ) reporter in MEFs from Rosa26CreERT2; R26R (Lox-STOP-Lox-lacZ) embryos", "assay_type": "cell-based, mouse", "details": "with vs without 365 nm UV light exposure; X-gal stained MEFs", "description": "as §1\nMouse embryonic fibroblasts (MEFs) isolated from the Rosa26CreER^T2; mT/mG mice in cell culture were used to test the caged 4-OHC activity. The Rosa26CreER^T2; mT/mG MEFs were treated with either 4-OHC or caged 4-OHC and illuminated at 365 nm. […] To further test the caged 4-OHC, another reporter mouse was generated (Rosa26CreER^T2; R26R mice). The Rosa26CreER^T2; R26R mice were generated by crossing homozygous Rosa26CreER^T2 mice with homozygous Rosa26-loxP-STOP-loxP-lacZ mice (experimental system shown in FIG. 9).\nAn additional set of experiments were performed to test the ability of Caged Molecules I, II, and III (shown in Schematic #5) to induce nuclear translocation of a ER fusion protein in a cell following light exposure. Mouse embryonic fibroblasts from Rosa26-CreER^T2; Lox-STOP-Lox-lacZ embryos were treated with 5 μM 4-OHC (positive control; lower left panel), treat Caged Molecule I (“Compound I”) with or without 365 nm UV light exposure (top right and top center panels, respectively), Caged Molecule II (“Compound II”) with or without 365 nm UV light exposure (middle right and middle center panels, respectively), or Caged Molecule III (“Compound III”) with or without 365 UV light exposure (bottom right and […] panels, respectively)."}, "[7]": {"details": "4-OHC compared with 4-OHT; cited from earlier work"}}, "note": "Entries after “also recorded” stand apart in the source; their conditions may differ.", "data": [{"compound": "COc1cc(C(C)Oc2ccc(C(=C3CCCCC3)c3ccc(OCCN(C)C)cc3)cc2)c([N+](=O)[O-])cc1OC", "note": "(stereo not drawn) [caged 4-OHC, 1-(4,5-dimethoxy-2-nitrophenyl) ethanol (DMNPE) caged 4-hydroxycyclofen]", "values": [{"measurement": "EGFP expression in response to photoactivation", "setting": "CreER [1]", "result": "very tight control of EGFP expression in response to photoactivation"}, {"measurement": "conversion to / release of 4-OHC upon UV irradiation", "setting": "[2]; HPLC-MS, ~365 nm, 2.0 mM in water:acetonitrile 1:1", "result": "quantitative, unidirectional conversion to 4-OHC; also recorded: quantitative release of 4-OHC"}, {"measurement": "time to completion of photochemical (photocleavage) reaction", "setting": "[2]; hand-held 365 nm UV lamp, UV-Vis, water:acetonitrile 1:1", "result": "≤ 10", "unit": "min"}, {"measurement": "breakdown in the absence of light exposure", "setting": "[3]", "result": "did not appear to show any sign of breakdown prior to illumination"}, {"measurement": "EGFP expression after photocleavage", "setting": "CreER [4]", "result": "induced EGFP expression in a stringent fashion"}, {"measurement": "EGFP induction in illuminated right vs non-illuminated left mammary gland", "setting": "CreER [5]; intraperitoneal, 365 nm light on right mammary gland, seven days later", "result": "the right, but not the left, mammary gland showed strong EGFP induction; also recorded: expressed EGFP"}, {"measurement": "diffusion after uncaging to other organs", "setting": "CreER [5]; skin and mammary gland data taken together", "result": "limited diffusion after uncaging"}, {"measurement": "EGFP signal on illuminated ventral vs non-illuminated dorsal skin", "setting": "CreER [6]; intraperitoneal, UV illumination only on ventral skin", "result": "EGFP signal was observed on the ventral skin but not on the dorsal skin"}, {"measurement": "average increase in fluorescence intensity", "setting": "CreER [6]; intraperitoneal, ventral skin UV illuminated", "result": 2.5, "unit": "fold"}]}, {"compound": "4-hydrocyclofen conjugated with the photoactivatable 4,5-demethoxy-2-nitrophen methanol (DMNPM) group [DMNPM caged 4-hydroxycyclofen, reference compound]", "values": [{"measurement": "breakdown in the absence of light exposure", "setting": "[3]", "result": "spontaneous breakdown in the absence of appropriate light exposure"}]}, {"compound": "CCOC(=O)COc1c(OC)cc([N+](=O)[O-])c(COc2ccc(C(=C3CCCCC3)c3ccc(OCCN(C)C)cc3)cc2)c1[N+](=O)[O-]", "note": "[Caged Molecule II]", "values": [{"measurement": "nuclear translocation / nuclear transport of the ER fusion protein", "setting": "CreER fusion protein", "result": "resulted in an increase in the nuclear transport of the ER fusion protein"}]}, {"compound": "CN(C)CCOc1ccc(C(=C2CCCCC2)c2ccc(O)cc2)cc1", "note": "[4-OHC, 4-hydroxycyclofen, reference compound]", "values": [{"measurement": "photostability", "setting": "[7]", "result": "better photostability"}, {"measurement": "EGFP signal at whole mouse level", "setting": "CreER [6]; treated with 4-OHC (uncaged)", "result": "strong EGFP signal was detected"}]}, {"compound": "CCOc1c(OC)cc([N+](=O)[O-])c(COc2ccc(C(=C3CCCCC3)c3ccc(OCCN(C)C)cc3)cc2)c1[N+](=O)[O-]", "note": "[Caged Molecule I]", "values": [{"measurement": "nuclear translocation / nuclear transport of the ER fusion protein", "setting": "CreER fusion protein", "result": "resulted in an increase in the nuclear transport of the ER fusion protein"}]}, {"compound": "COc1ccc(-c2ccc([N+](=O)[O-])c(C(C)COc3ccc(C(=C4CCCCC4)c4ccc(OCCN(C)C)cc4)cc3)c2)cc1", "note": "(stereo not drawn) [Caged Molecule III]", "values": [{"measurement": "nuclear translocation / nuclear transport of the ER fusion protein", "setting": "CreER fusion protein", "result": "resulted in an increase in the nuclear transport of the ER fusion protein"}]}]}
